T1: Solute carrier organic anion transporter family member 1B1 (Homo sapiens, UniProt Q9Y6L6)
T1 sequence (Q9Y6L6 whole entry): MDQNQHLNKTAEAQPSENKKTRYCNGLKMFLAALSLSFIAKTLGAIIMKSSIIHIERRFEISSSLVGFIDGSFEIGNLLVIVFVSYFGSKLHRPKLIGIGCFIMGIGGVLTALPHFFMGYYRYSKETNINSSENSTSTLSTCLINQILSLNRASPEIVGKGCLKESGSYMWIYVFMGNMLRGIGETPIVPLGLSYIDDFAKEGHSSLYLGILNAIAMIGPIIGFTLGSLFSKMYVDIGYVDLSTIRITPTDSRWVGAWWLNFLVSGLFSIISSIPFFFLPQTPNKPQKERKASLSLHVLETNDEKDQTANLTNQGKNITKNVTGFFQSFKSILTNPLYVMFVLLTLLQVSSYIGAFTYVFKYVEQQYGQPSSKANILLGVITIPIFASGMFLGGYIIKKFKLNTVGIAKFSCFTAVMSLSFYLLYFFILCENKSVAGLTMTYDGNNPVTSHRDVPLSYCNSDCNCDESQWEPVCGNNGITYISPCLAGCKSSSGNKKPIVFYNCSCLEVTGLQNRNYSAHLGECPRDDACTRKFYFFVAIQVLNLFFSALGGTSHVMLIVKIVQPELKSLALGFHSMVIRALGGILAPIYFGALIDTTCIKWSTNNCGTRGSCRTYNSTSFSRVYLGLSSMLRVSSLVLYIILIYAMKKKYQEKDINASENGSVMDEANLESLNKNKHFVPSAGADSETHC

B1: Solute carrier organic anion transporter family member 1B1 (Homo sapiens) (protein)
chain: MDQNQHLNKTAEAQPSENKKTRYCNGLKMFLAALSLSFIAKTLGAIIMKSSIIHIERRFEISSSLVGFIDGSFEIGNLLVIVFVSYFGSKLHRPKLIGIGCFIMGIGGVLTALPHFFMGYYRYSKETNINSSENSTSTLSTCLINQILSLNRASPEIVGKGCLKESGSYMWIYVFMGNMLRGIGETPIVPLGLSYIDDFAKEGHSSLYLGILNAIAMIGPIIGFTLGSLFSKMYVDIGYVDLSTIRITPTDSRWVGAWWLNFLVSGLFSIISSIPFFFLPQTPNKPQKERKASLSLHVLETNDEKDQTANLTNQGKNITKNVTGFFQSFKSILTNPLYVMFVLLTLLQVSSYIGAFTYVFKYVEQQYGQPSSKANILLGVITIPIFASGMFLGGYIIKKFKLNTVGIAKFSCFTAVMSLSFYLLYFFILCENKSVAGLTMTYDGNNPVTSHRDVPLSYCNSDCNCDESQWEPVCGNNGITYISPCLAGCKSSSGNKKPIVFYNCSCLEVTGLQNRNYSAHLGECPRDDACTRKFYFFVAIQVLNLFFSALGGTSHVMLIVKIVQPELKSLALGFHSMVIRALGGILAPIYFGALIDTTCIKWSTNNCGTRGSCRTYNSTSFSRVYLGLSSMLRVSSLVLYIILIYAMKKKYQEKDINASENGSVMDEANLESLNKNKHFVPSAGADSETHC

Assays:
[1] = target: T1, Solute carrier organic anion transporter family member 1B1; experiment: Inhibition of OATP1B1 (unknown origin) expressed in HEK293 cells using estradiol-17beta-glucuronide substrate; format: ADME, cell-based
[2] = target: T1, Solute carrier organic anion transporter family member 1B1; experiment: Inhibition of OATP1B1 (unknown origin) expressed in HEK293 cells using pitavastatin substrate; format: ADME, cell-based
[3] = target: T1, Solute carrier organic anion transporter family member 1B1; experiment: Inhibition of OATP1B1 (unknown origin) expressed in HEK293 cells using estrone-3-sulfate substrate; format: ADME, cell-based
[4] = substrate: C[C@]12CC[C@@H]3c4ccc(O)cc4CC[C@H]3[C@@H]1CC[C@@H]2O[C@@H]1O[C@H](C(=O)O)[C@@H](O)[C@H](O)[C@H]1O; experiment: (§1) Drug uptake in HEK293 cells expressing OATP1B1 (unknown origin) assessed as OATP1B1-mediated drug transport; format: ADME, cell-based, Homo sapiens
[5] = substrate: O=C(O)C[C@H](O)C[C@H](O)/C=C/c1c(C2CC2)nc2ccccc2c1-c1ccc(F)cc1; experiment: as §1; format: ADME, cell-based, Homo sapiens

Molecule	IC50 [1]	IC50 [2]	IC50 [3]	Km [4]	Vmax [4]	Km [5]	Vmax [5]
Cc1ccc(C)c(OCCCC(C)(C)C(=O)O)c1 [GEMFIBROZIL]	11 µM	38 µM	130 µM				
CO[C@H]1/C=C/O[C@@]2(C)Oc3c(C)c(O)c4c(O)c(c(/C=N/N5CCN(C)CC5)c(O)c4c3C2=O)NC(=O)/C(C)=C\C=C\[C@H](C)[C@H](O)[C@@H](C)[C@@H](O)[C@@H](C)[C@H](OC(C)=O)[C@@H]1C [RIFAMPIN]	0.3 µM		2.3 µM				
B1				3.6 µM	0.0002 µmol/min	4.8 µM	0.00045 µmol/min
